How the values were obtained:
Assay type in all cases: cell-based
[1] = target: T1, Cystic fibrosis transmembrane conductance regulator (Homo sapiens, UniProt P13569, F508DEL); experiment: Corrector activity at HRP-fused CFTR F508del mutant (unknown origin) expressed in human CFBE41o cells assessed as increase in matured protein levels at cell surface after 18 to 24 hrs by luminescence assay
[2] = system: Cystic fibrosis transmembrane conductance regulator (Homo sapiens), P13569 [F508del]; experiment: (§1) Corrector activity at HRP-fused CFTR F508del mutant (unknown origin) expressed in human CFBE41o cells assessed as increase in matured protein levels at cell surface at 20 uM after 18 to 24 hrs in presence of co-corrector 3-[(2R,4R)-4-({[l-(2,2-difluoro-l,3-benzodioxol-5-yl)cyclopropyl]carbonyl}amino)-7-methoxy-3,4-dihydro-2H-chromen-2-yl]benzoic acid by luminescence assay relative to co-corrector
[3] = system: Cystic fibrosis transmembrane conductance regulator (Homo sapiens), P13569 [F508del]; experiment: Corrector activity at HRP-fused CFTR F508del mutant (unknown origin) expressed in human CFBE41o cells assessed as increase in matured protein levels at cell surface at 20 uM after 18 to 24 hrs by luminescence assay relative to 3-[(2R,4R)-4-({[l-(2,2-difluoro-l,3-benzodioxol-5-yl)cyclopropyl]carbonyl}amino)-7-methoxy-3,4-dihydro-2H-chromen-2-yl]benzoic acid
[4] = target: T1, Cystic fibrosis transmembrane conductance regulator; experiment: as §1, with “surface” for “surface at 20 uM”, “assay” for “assay relative to co-corrector”

T1 sequence (P13569 as listed by the source): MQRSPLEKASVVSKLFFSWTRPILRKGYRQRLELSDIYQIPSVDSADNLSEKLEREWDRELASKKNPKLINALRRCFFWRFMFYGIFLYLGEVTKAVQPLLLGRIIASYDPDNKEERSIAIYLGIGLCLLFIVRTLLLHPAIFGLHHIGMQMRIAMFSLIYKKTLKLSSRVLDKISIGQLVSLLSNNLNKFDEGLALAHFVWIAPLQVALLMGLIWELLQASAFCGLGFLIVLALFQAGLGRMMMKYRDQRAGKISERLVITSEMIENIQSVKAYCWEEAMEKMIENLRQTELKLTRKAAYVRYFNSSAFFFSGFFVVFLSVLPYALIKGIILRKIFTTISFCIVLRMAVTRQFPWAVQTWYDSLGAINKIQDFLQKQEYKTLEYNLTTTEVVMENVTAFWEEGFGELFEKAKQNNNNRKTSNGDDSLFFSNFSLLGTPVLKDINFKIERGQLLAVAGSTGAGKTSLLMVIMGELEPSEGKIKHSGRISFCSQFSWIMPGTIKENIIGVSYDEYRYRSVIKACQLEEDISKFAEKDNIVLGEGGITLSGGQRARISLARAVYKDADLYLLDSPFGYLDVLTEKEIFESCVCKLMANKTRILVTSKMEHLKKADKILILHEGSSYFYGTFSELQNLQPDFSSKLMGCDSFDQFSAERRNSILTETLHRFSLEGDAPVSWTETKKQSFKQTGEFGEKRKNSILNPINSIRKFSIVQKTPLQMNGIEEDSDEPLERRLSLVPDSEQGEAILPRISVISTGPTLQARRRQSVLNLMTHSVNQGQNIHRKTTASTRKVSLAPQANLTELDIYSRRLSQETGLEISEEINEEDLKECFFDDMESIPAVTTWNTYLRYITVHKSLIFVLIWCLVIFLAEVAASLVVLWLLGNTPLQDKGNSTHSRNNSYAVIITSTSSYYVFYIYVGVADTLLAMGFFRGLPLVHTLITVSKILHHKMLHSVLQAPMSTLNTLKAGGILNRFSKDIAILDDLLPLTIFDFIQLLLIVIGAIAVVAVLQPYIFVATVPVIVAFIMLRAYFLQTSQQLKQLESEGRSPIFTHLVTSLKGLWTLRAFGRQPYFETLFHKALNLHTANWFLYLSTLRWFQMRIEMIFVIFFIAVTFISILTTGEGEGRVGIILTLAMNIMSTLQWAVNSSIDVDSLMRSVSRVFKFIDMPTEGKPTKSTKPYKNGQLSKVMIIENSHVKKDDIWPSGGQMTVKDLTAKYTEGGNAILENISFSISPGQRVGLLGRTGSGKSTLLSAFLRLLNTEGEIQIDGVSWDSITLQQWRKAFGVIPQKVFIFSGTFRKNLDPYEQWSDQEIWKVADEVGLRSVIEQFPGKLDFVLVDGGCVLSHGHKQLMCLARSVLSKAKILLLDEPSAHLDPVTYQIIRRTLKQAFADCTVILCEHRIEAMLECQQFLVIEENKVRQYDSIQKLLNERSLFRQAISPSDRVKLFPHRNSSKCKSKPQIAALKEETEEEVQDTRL
Chain of Cystic fibrosis transmembrane conductance regulator (Homo sapiens), P13569 [F508del] (P13569 as listed by the source): as above

Row | SMILES | EC50 [1] [µM] | %max [2] [%] | %max [3] [%] | EC50 [4] [µM]
1 | COc1ncc(C2CCC2)cc1CN[C@H]1[C@H](C(C)(C)C)[C@@H](C(=O)O)N(C(=O)C2CCCCC2)[C@H]1c1ccccc1C | < 1 | > 350 | > 200 | < 1
2 | COc1ccc([Si](C)(C)C)cc1CN[C@H]1[C@H](C(C)(C)C)[C@@H](C(=O)O)N(C(=O)C2CCCCC2)[C@H]1c1ccccc1 | < 1 | > 350 | > 200 | < 1
3 | COc1ccc(C2(C)CCC2)cc1CN[C@H]1[C@H](C(C)(C)C)[C@@H](C(=O)O)N(C(=O)[C@@H]2CCCCO2)[C@H]1c1ccccc1C | < 1 | > 350 | > 200 | < 1
4 | CC(C)c1ccccc1[C@H]1[C@@H](NCc2cccc3c2OC(C)(C)C3)[C@H](C(C)(C)C)[C@@H](C(=O)O)N1C(=O)[C@@H]1CCCCO1 | < 1 | > 350 | > 200 | < 1

Now from value to compound:

Row | EC50 [1] [µM] | %max [2] [%] | %max [3] [%] | EC50 [4] [µM] | SMILES
5 | < 1 | > 350 | > 200 | < 1 | COc1ccc(-c2cccc(F)c2F)cc1CN[C@H]1[C@H](C(C)(C)C)[C@@H](C(=O)O)N(C(=O)C2CCCCC2)[C@H]1c1ccccc1
6 | < 1 | > 350 | 100 to 200 | < 1 | COc1cc2c(cc1CN[C@H]1[C@H](C(C)(C)C)[C@@H](C(=O)O)N(C(=O)C3CCCCC3)[C@H]1c1ccccc1)C(C)(C)CCC2(C)C
7 | 1 to 10 | > 350 | > 200 | 1 to 10 | COc1ncc(C(C)C)cc1CN[C@H]1[C@H](C(C)(C)OC)[C@@H](C(=O)O)N(C(=O)C2CCCCC2)[C@H]1c1ccccc1
8 | < 1 | > 350 | > 200 | < 1 | COc1ccc(C(C)(C)C)cc1CN[C@H]1[C@H](C(C)(C)C)[C@@H](C(=O)O)N(C(=O)[C@@H]2Cc3ccccc3O2)[C@H]1c1ccccc1
9 | < 1 | > 350 | > 200 | < 1 | COc1ccc(C(C)(C)C)cc1CN[C@H]1[C@H](C(C)(C)C)[C@@H](C(=O)O)N(C(=O)C2CCCCC2)[C@H]1c1cccnc1N(C)C

From ChEMBL document CHEMBL4145658, “Modulators of the Cystic Fibrosis Transmembrane Conductance Regulator Protein” (ACS Med Chem Lett, 2018)
